Assay results taken from paper PMC4461796, “Synthesis, anticholinesterase and antioxidant potentials of ketoesters derivatives of succinimides: a possible role in the management of Alzheimer’s” (Chemistry Central Journal, 2015).
Converted amounts (≈) assume the structure as drawn. “And” between values parts separate entries of the source, which are not always exact repeats. Identical values can stand only once. Like-named read-outs stand apart in the source and are kept apart here.

Assays:
[1] = DPPH free radicals scavenging assay; conditions: for Percent inhibition (mean ± SEM), DPPH free radicals scavenging: n = 3; for IC50 (DPPH free radicals scavenging): from 250-1000 μg/mL tested concentrations
Method: The compounds’ free radical scavenging ability was evaluated using 1,1-diphenyl, 2-picrylhydrazyl (DPPH) free radicals. Different dilutions (250, 500 and 1000 μg/mL) of compounds (0.1 mL) were added to 0.004 % methanolic solution of DPPH. After 30 min the absorbance was measured at 517 nm using UV spectrophotometer. Ascorbic acid was used as positive control.
Percent scavenging activity was calculated as; A0−A1/A0×100
Where A0 is absorbance of control and A1 is the absorbance of the compound sample. Each experiment was performed in triplicate and inhibition curves were constructed using the GraphPad prism program (GraphPAD, San Diego, California, USA) and median inhibitory concentrations (IC50) values were determined.
(§1) Radical scavenging ability was calculated by a linear regression analysis among the inhibition percentages against the compounds concentrations via the Excel program.

[2] = ABTS free radicals scavenging assay; conditions: for Percent inhibition (mean ± SEM), ABTS free radicals scavenging: n = 3; for IC50 (ABTS free radicals scavenging): from 250-1000 μg/mL tested concentrations
Method: ABTS (2, 2-azinobis [3-ethylbenzthiazoline]-6-sulfonic acid) free radicals were also used to confirm the antioxidant activity of the synthesized compounds. The activity is based on the capacity of antioxidants to scavenge ABTS^+ radical cation causing a reduction in absorbance at 734 nm. ABTS (7 mM) and […] (2.45 mM) solutions were prepared and mixed. The resultant mixture was maintained at room temperature in dark for 12–16 h to get dark color solution containing ABTS^+ radical cations. At the time of activity, ABTS^+ radical cation solution was diluted with Phosphate buffer (0.01 M) pH 7.4 to adjust an absorbance value of 0.70 at 734 nm. Radical scavenging capability of the compounds was analyzed by mixing 300 μl of compound with 3.0 mL of ABTS solution in cuvette. The reduction in absorbance was measured spectrophotometrically after one minute of mixing the solutions and continued for six min. Ascorbic acid was used as a positive control. The assay was repeated three times and percent inhibition was calculated with formula; %scavengingeffect=Controlabsorbance‐Sampleabsorbance/Controlabsorbance×100
as §1

[3] = target: T1, acetylcholinesterase (AChE) from Electric eel (Electrophorus electricus, UniProt O42275); format: biochemical; conditions: n = 3
T1 construct: AChE Electric eel (type-VI-S, CAS 9000-81-1 Sigma-Aldrich GmbH USA); purchased Sigma-Aldrich type-VI-S (CAS 9000-81-1; catalogue number not given)
Method: (§2) The assay is based on the acetylcholinesterase promoted hydrolysis of acetylthiocholine iodide and butyrylthiocholine iodide by butyrylcholinesterase. The hydrolysis processes give 5-thio-2-nitrobenzoate anion followed by complexation with DTNB (which give yellow color) and is detected by the spectrophotometer.
(§3) Compounds (each separately) were dissolved in phosphate buffer (0.1 M) in concentrations ranging from 250–1000 μg/mL. […] Finally, potassium hydroxide was used to adjust pH. AChE (518 U/mg solid) and BChE (7–16 U/mg) were diluted in freshly prepared buffer pH 8.0 until final concentrations of 0.03 U/mL and 0.01 U/mL were obtained. Solutions of DTNB (0.0002273 M), ATchI and BTchI (0.0005 M) were prepared in distilled water and were kept in Eppendorf caps in the refrigerator.
(§4) For each assay, an enzyme solution of 5 μl was added to the cuvette followed by addition of compound (205 μl), and finally DTNB reagent (5 μl). The solution mixture was maintained at 30 °C for 15 min using water bath with subsequent addition of substrate solution (5 μl). A double beam spectrophotometer was used to measure the absorbance at 412 nm. […] The absorbances along with the reaction time were taken for four minutes at 30 °C and were repeated in triplicate. Finally, the enzyme activity and enzyme inhibition by control and tested samples were calculated from the rate of absorption with change in time (V = ΔAbs /Δt) as follow;
Where Vmax is enzyme activity in the absence of inhibitor drug. […]

[4] = target: T2, butyrylcholinesterase (BChE) from equine serum (Equus caballus, UniProt P81908); experiment: Butyrylcholinesterase inhibition assay (Ellman's spectrophotometric assay); format: biochemical; conditions: for IC50: from 250-1000 μg/mL tested concentrations; for inhibition at 250 µg/mL / inhibition at 500 µg/mL / inhibition at 1000 µg/mL: read-out: Percent AChEI (mean ± SEM) (Table 3, butyrylcholinesterase inhibition)
T2 construct: BChE equine serum Lyophilized (CAS 9001-08-5 Sigma-Aldrich GmbH USA); purchased Sigma-Aldrich CAS 9001-08-5 (catalogue number not given); host or cells: equine serum
Method: as §2, §3, §4
Where Vmax is enzyme activity in the absence of inhibitor drug.
as §1

T1 sequence (O42275 24-633): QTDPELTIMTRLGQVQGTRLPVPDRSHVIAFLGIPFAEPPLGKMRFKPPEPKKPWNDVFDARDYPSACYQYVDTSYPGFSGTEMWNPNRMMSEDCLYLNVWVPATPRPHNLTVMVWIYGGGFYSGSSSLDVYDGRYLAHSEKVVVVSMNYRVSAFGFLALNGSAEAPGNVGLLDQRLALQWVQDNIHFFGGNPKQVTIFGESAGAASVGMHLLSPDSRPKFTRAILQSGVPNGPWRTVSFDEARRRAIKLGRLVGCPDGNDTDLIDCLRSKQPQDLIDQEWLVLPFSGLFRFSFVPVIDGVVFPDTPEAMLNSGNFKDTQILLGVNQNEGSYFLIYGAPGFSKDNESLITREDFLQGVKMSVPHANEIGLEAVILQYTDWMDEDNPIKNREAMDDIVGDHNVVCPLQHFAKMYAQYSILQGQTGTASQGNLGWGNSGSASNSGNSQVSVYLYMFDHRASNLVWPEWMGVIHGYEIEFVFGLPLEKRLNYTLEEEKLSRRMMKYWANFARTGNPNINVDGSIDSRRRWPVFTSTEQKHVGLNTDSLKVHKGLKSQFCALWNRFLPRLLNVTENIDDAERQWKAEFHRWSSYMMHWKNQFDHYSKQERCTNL
T2 sequence (P81908 whole entry): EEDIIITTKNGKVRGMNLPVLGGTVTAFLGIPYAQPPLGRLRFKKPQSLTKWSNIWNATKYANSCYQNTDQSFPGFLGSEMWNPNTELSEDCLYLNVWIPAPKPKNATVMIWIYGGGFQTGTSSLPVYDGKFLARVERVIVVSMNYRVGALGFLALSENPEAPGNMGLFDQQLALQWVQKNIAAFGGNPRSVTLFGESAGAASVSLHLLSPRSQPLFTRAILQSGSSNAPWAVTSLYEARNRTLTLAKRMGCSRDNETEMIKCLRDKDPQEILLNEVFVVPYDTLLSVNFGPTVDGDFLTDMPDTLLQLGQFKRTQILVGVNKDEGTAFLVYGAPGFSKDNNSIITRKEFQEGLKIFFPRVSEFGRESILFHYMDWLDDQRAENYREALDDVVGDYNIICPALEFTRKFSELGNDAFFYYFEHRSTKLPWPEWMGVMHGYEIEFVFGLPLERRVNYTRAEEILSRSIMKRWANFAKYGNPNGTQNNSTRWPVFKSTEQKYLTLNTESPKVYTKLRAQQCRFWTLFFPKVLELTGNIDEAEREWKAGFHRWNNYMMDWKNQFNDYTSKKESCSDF

SMILES | Percent inhibition (mean ± SEM), DPPH free radicals scavenging ([1]; conc. 250 μg/mL) | Percent inhibition (mean ± SEM), DPPH free radicals scavenging ([1]; conc. 500 μg/mL) | Percent inhibition (mean ± SEM), DPPH free radicals scavenging ([1]; conc. 1000 μg/mL) | IC50 (DPPH free radicals scavenging) [1] | Percent inhibition (mean ± SEM), ABTS free radicals scavenging ([2]; conc. 250 μg/mL) | Percent inhibition (mean ± SEM), ABTS free radicals scavenging ([2]; conc. 500 μg/mL) | Percent inhibition (mean ± SEM), ABTS free radicals scavenging ([2]; conc. 1000 μg/mL) | IC50 (ABTS free radicals scavenging) [2] | Percent AChEI (mean ± SEM) ([3]; concentration 250 μg/mL) | Percent AChEI (mean ± SEM) ([3]; concentration 500 μg/mL) | Percent AChEI (mean ± SEM) ([3]; concentration 1000 μg/mL) | IC50 [4] | inhibition at 250 µg/mL [4] | inhibition at 500 µg/mL [4] | inhibition at 1000 µg/mL [4]
O=C1O[C@H]([C@@H](O)CO)C(O)=C1O [Ascorbic acid, reference compound] | 78.61 ± 0.23% | 81.71 ± 0.54% | 93.56 ± 0.37% | 20 µg/mL (≈ 114 µM) | 84.66 ± 0.88% | 87.23 ± 0.47% | 91.62 ± 0.62% | <0.1 µg/mL | – | – | – | – | – | – | –
CCOC(=O)C1(C2CC(=O)N(c3ccccc3)C2=O)CCCC1=O (centres unmarked) [Compound 1, Ethyl 2-oxo-1-(2,5-dioxo-1-phenylpyrrolidin-3-yl)cyclopentanecarboxylate] | 35.60 ± 0.75 % | 52.49 ± 0.78 % | 72.41 ± 0.45 % | 440 µg/mL (≈ 1340 µM) | 65.00 ± 0.57 % | 77.45 ± 0.54 % | 88.51 ± 0.62 % | 90 µg/mL (≈ 273 µM) | 93.25 ± 0.25 ^ns % | 94.25 ± 0.05 ^ns % | 98.00 ± 0.70% and 98.00 ± 0.70^ns % | 128 µM | 72.5 ± 0.02% | 82.5 ± 0.18% | 90.25 ± 0.02%
CCOC(=O)C1(C2CC(=O)N(Cc3ccccc3)C2=O)CCCC1=O (centres unmarked) [Compound 2, Ethyl 1-(1-benzyl-2,5-dioxopyrrolidin-3-yl)-2-oxocyclopentanecarboxylate] | 33.61 ± 0.66 % | 52.48 ± 0.56 % | 70.32 ± 0.61 % | 460 µg/mL (≈ 1340 µM) | 59.66 ± 0.66 % | 72.45 ± 0.65 % | 86.49 ± 0.49 % | 141 µg/mL (≈ 411 µM) | 91.00 ± 0.52% and 91.00 ± 0.52 ^ns % | 91.75 ± 0.04% and 91.75 ± 0.04 ^ns % | 98.75 ± 0.25% and 98.75% and 98.75 ± 0.25 ^ns % | < 0.291 µM | 84.25 ± 0.12% | 86.75 ± 0.22% | 90 ± 0.1%
CCOC(=O)C1(C2CC(=O)N(c3ccccc3)C2=O)CCCCC1=O (centres unmarked) [Compound 3, Ethyl 2-oxo-1-(2,5-dioxo-1-phenylpyrrolidin-3-yl)cyclohexanecarboxylate] | 30.59 ± 0.67 % | 54.64 ± 0.70 % | 60.40 ± 0.49 % | 535 µg/mL (≈ 1560 µM) | 64.67 ± 0.89 % | 71.25 ± 0.48 % | 80.41 ± 0.73 % | 73 µg/mL (≈ 213 µM) | 95.25 ± 0.20 ^ns % | 96.00 ± 0.80 ^ns % | 98.50 ± 0.09% and 98.50 ± 0.09 ^ns % | 20.4 µM | 78.25 ± 0.04% | 89 ± 0.3% | 89.25 ± 0.5%
CCOC(=O)C1(C2CC(=O)N(Cc3ccccc3)C2=O)CCCCC1=O (centres unmarked) [Compound 4, 1Ethyl 1-(1-benzyl-2,5-dioxopyrrolidin-3-yl)-2-oxocyclohexanecarboxylate] | 20.34 ± 0.58 % | 24.75 ± 0.64 % | 45.80 ± 0.61 % | >1000 µg/mL | 54.00 ± 1.15 % | 67.33 ± 0.77 % | 73.59 ± 0.43 % | 173 µg/mL (≈ 484 µM) | 93.25 ± 0.15 ^ns % | 96.00 ± 0.55 ^ns % | 97.25 ± 0.07% and 97.25 ± 0.07 ^ns % | 5.6 µM | 87.5 ± 0.04% | 88.5 ± 0.5% | 98.5 ± 0.18%
COc1ccc2c3c1O[C@H]1C[C@@H](O)C=C[C@@]31CCN(C)C2 [Galanthamine, reference compound] | – | – | – | – | – | – | – | – | – | – | – | – | 71.72 ± 0.51% | 85.47 ± 0.59% | 94.5 ± 0.71%
